Assay [1] concerns the target T1, recombinant human CYP11B2 (Homo sapiens, UniProt P19099).
T1 construct: made in house; host or cells: V79-4 cells (enzyme enriched microsomal fraction of cell lysates)
T1 sequence (P19099 25-503): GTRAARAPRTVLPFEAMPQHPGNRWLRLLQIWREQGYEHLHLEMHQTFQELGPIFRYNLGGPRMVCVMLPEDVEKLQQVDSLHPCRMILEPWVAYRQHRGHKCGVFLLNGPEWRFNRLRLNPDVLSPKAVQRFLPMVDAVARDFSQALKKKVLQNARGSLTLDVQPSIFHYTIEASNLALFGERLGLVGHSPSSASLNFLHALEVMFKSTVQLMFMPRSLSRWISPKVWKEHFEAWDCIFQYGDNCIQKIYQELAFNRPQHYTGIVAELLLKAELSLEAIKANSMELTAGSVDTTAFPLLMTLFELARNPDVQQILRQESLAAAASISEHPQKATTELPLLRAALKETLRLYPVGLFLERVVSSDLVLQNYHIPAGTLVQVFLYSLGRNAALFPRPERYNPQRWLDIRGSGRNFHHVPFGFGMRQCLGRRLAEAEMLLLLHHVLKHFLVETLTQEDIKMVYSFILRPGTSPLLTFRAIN
Put plainly: CYP11B2 enzyme assay, enzyme enriched microsomes from V79-4 cells, aldosterone by LC-MS. Format: biochemical. As to conditions: IC50 ranges; run at Km of 11-deoxycorticosterone; read-out: hCYP11B2 IC50.
Method: (§1) An enzyme enriched microsomal fraction was prepared from cellular lysates and subsequently used as the enzyme source for determining inhibitor IC50s. […] Enzyme assays for inhibitor screening employed CYP11B2 and CYP11B1 enzyme enriched microsomes and were run at the Km of the respective substrates. Products of the enzyme reactions, aldosterone for CYP11B2 or cortisol for CYP11B1, were measured by LC-MS. Assays were run under conditions of less than 20% substrate turnover. Inhibitor IC50s were generated by determining the product formation in the absence or presence of inhibitor at various concentrations. In the absence of the test compound, the product formed (Pt) in each data set was defined as 100% activity. In the absence of enzyme, the product formed (Pb) in each data set was defined as 0% activity. The percent activity in the presence of each inhibitor was calculated according to the following equation: % activity=(P−Pb)/(Pt−Pb), where P=the product formed in the presence of the inhibitor.

Assay [2] concerns the target T2, recombinant human CYP11B1 (Homo sapiens, UniProt P15538).
T2 construct: made in house; host or cells: V79-4 cells (enzyme enriched microsomal fraction of cell lysates)
T2 sequence (P15538 25-503): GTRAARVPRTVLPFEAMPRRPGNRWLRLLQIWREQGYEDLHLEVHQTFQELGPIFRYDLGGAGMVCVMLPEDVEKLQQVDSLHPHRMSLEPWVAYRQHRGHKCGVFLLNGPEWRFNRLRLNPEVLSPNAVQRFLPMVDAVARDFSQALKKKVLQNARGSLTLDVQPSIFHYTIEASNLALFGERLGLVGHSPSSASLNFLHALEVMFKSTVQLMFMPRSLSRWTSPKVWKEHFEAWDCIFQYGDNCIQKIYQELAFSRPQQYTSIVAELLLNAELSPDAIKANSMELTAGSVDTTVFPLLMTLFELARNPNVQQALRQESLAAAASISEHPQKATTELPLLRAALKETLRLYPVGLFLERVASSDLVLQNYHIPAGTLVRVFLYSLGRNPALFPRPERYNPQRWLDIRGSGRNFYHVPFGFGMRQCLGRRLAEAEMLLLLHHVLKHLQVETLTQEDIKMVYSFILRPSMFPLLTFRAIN
Put plainly: CYP11B1 enzyme assay, enzyme enriched microsomes from V79-4 cells, cortisol by LC-MS. The note with it: IC50 ranges; run at Km of 11-deoxycortisol; read-out: hCYP11B1 IC50. It is filed as biochemical.
Method: as §1

Usually IC50 stands for the concentration that inhibits the measured activity by half.

Some results are limits rather than exact numbers.

Regarding `Cc1ncc(-c2nc3ccc(F)cc3n2C2CC2)cn1` [Example 20, 1-Cyclopropyl-6-fluoro-2-(2-methylpyrimidin-5-yl)-1H-benzo[d]imidazole], the IC50 in assay [1] was 1000 to 10000 nM; in assay [2], > 10000 nM.
In the same order, the values of `N#Cc1ccc2nc(-c3cncnc3C(F)F)n(C3CC3)c2n1` [Example 63, 3-Cyclopropyl-2-(4-(difluoromethyl)pyrimidin-5-yl)-3H-imidazo[4,5-b]pyridine-5-carbonitrile] are 1 to 100 nM and 1000 to 10000 nM.
Take `N#Cc1ncncc1-c1nc2cc(F)c(F)cc2n1C1CC1` [Example 46, 5-(1-Cyclopropyl-5,6-difluoro-1H-benzo[d]imidazol-2-yl) pyrimidine-4-carbonitrile]: the IC50 was in the range of 1 to 100 nM in assay [1] and 1000 to 10000 nM in assay [2].
In the same order, the values of `CCn1c(-c2cncnc2)cc2ccc(Cl)cc21` [Example 47, 6-Chloro-1-ethyl-2-(pyrimidin-5-yl)-1H-indole] are 1 to 100 nM and 100 to 1000 nM.
For `CCn1c(-c2cncnc2C(C)C)nc2ccc(C#N)cc21` [Example 41, 1-Ethyl-2-(4-isopropylpyrimidin-5-yl)-1H-benzo[d]imidazole-6-carbonitrile] the same measures were 1 to 100 nM and 1000 to 10000 nM.
For `CC(C)c1ncncc1-c1nc2ccc(C#N)cc2n1C1CC1` [Example 28, 1-Cyclopropyl-2-(4-isopropylpyrimidin-5-yl)-1H-benzo[d]imidazole-6-carbonitrile] the same measures were 1 to 100 nM and 1000 to 10000 nM.
For `Cc1ncncc1-c1nc2cnc(Cl)cc2n1C1CC1` [Example 55, 6-Chloro-1-cyclopropyl-2-(4-methylpyrimidin-5-yl)-1H-imidazo[4,5-c]pyridine], the IC50 in assay [1] was 100 to 1000 nM; in assay [2], > 10000 nM.
For the compound `FC(F)(F)c1ncncc1-c1nc2cc(Cl)cnc2n1C1CC1` [Example 66, 6-Chloro-3-cyclopropyl-2-(4-(trifluoromethyl)pyrimidin-5-yl)-3H-imidazo[4,5-b]pyridine], the values for the IC50 in assay [1] and in assay [2] were 1000 to 10000 nM and > 10000 nM, respectively.
In the same order, the values of `CC(C)c1ncncc1-c1nc2ccc(Cl)cc2n1C1CC1` [Example 24, 6-Chloro-1-cyclopropyl-2-(4-isopropylpyrimidin-5-yl)-1H-benzo[d]imidazole] are 1 to 100 nM and 1000 to 10000 nM.
Consider `CCc1ncncc1-c1nc2ccc(F)cc2n1C1CC1` [Example 5, 1-Cyclopropyl-2-(4-ethylpyrimidin-5-yl)-6-fluoro-1H-benzo[d]imidazole], for which the IC50 in assay [1] lay within 1 to 100 nM; in assay [2] it was 1000 to 10000 nM.
For the compound `N#Cc1ncncc1-c1nc2ccc(F)cc2n1C1CC1` [Example 10, 5-(1-Cyclopropyl-6-fluoro-1H-benzo[d]imidazol-2-yl)pyrimidine-4-carbonitrile], the IC50 in assay [1] was 1 to 100 nM; in assay [2] it was 1000 to 10000 nM.
For `N#Cc1ccc2nc(-c3cncnc3C(F)(F)F)n(C3CC3)c2n1` [Example 65, 3-Cyclopropyl-2-(4-(trifluoromethyl)pyrimidin-5-yl)-3H-imidazo[4,5-b]pyridine-5-carbonitrile] the same measures were 1 to 100 nM and 1000 to 10000 nM.
For `CCc1ncncc1-c1nc2ccc(C#N)cc2n1C1CC1` [Example 8, 1-Cyclopropyl-2-(4-ethylpyrimidin-5-yl)-1H-benzo[d]imidazole-6-carbonitrile] the same measures were 1 to 100 nM and 1000 to 10000 nM.
For `CCn1c(-c2cncnc2C(F)F)nc2ccc(C#N)cc21` [Example 51, 2-(4-(Difluoromethyl)pyrimidin-5-yl)-1-ethyl-1H-benzo[d]imidazole-6-carbonitrile] the same measures were 1 to 100 nM and > 10000 nM.
In the case of `CCc1ncncc1-c1nc2cc(F)c(F)cc2n1C1CC1` [Example 45, 1-Cyclopropyl-2-(4-ethylpyrimidin-5-yl)-5,6-difluoro-1H-benzo[d]imidazole], the IC50 is 1 to 100 nM in assay [1] and 1000 to 10000 nM in assay [2].
In the same order, the values of `CC(=O)NCc1ncncc1-c1nc2ccc(F)cc2n1C1CC1` [Example 19, N-((5-(1-Cyclopropyl-6-fluoro-1H-benzo[d]imidazol-2-yl)pyrimidin-4-yl)methyl)acetamide] are 1000 to 10000 nM and > 10000 nM.
In the same order, the values of `COc1ccc2nc(-c3cncnc3C)n(C3CC3)c2n1` [Example 58, 3-Cyclopropyl-5-methoxy-2-(4-methylpyrimidin-5-yl)-3H-imidazo[4,5-b]pyridine] are 100 to 1000 nM and > 10000 nM.
`Cc1ncncc1-c1nc2cnc(C#N)cc2n1C1CC1` [Example 56, 1-Cyclopropyl-2-(4-methylpyrimidin-5-yl)-1H-imidazo[4,5-c]pyridine-6-carbonitrile]: the figures for the IC50 in assay [1] and in assay [2] were 100 to 1000 nM and > 10000 nM, respectively.
For `Cc1ncncc1-c1nc2ccc(F)cc2n1C1CC1` [Example 4, 1-Cyclopropyl-6-fluoro-2-(4-methylpyrimidin-5-yl)-1H-benzo[d]imidazole] the same measures were 1 to 100 nM and 1000 to 10000 nM.
On to `Cc1ncncc1-c1nc2ccc(C#N)cc2n1CC(F)(F)F` [Example 49, 2-(4-Methylpyrimidin-5-yl)-1-(2,2,2-trifluoroethyl)-1H-benzo[d]imidazole-6-carbonitrile], for which the IC50 in assay [1] is 100 to 1000 nM; in assay [2], > 10000 nM.
In the same order, the values of `CCCc1ncncc1-c1nc2ccc(F)cc2n1C1CC1` [Example 14, 1-Cyclopropyl-6-fluoro-2-(4-propylpyrimidin-5-yl)-1H-benzo[d]imidazole] are 1 to 100 nM and 1000 to 10000 nM.
As to `CC(F)(F)c1ncncc1-c1nc2ccc(C#N)cc2n1C1CC1` [Example 64, 1-Cyclopropyl-2-(4-(1,1-difluoroethyl)pyrimidin-5-yl)-1H-benzo[d]imidazole-6-carbonitrile], the IC50 in assay [1] lay within 1 to 100 nM; in assay [2] it was 1000 to 10000 nM.
In the same order, the values of `Fc1ccc2nc(-c3cncnc3C(F)F)n(C3CC3)c2c1` [Example 15, 1-Cyclopropyl-2-(4-(difluoromethyl)pyrimidin-5-yl)-6-fluoro-1H-benzo[d]imidazole] are 1 to 100 nM and 1000 to 10000 nM.
For `N#Cc1ccc2nc(-c3cncnc3C(F)(F)F)n(C3CC3)c2c1` [Example 60, 1-Cyclopropyl-2-(4-(trifluoromethyl)pyrimidin-5-yl)-1H-benzo[d]imidazole-6-carbonitrile] the same measures were 1 to 100 nM and 1000 to 10000 nM.
In the same order, the values of `Fc1cc2nc(-c3cncnc3C3CC3)n(C3CC3)c2cc1F` [Example 72, 1-Cyclopropyl-2-(4-cyclopropylpyrimidin-5-yl)-5,6-difluoro-1H-benzo[d]imidazole] are 100 to 1000 nM and > 10000 nM.
Regarding `CNc1ncncc1-c1nc2cc(F)c(F)cc2n1C1CC1` [Example 31, 5-(1-Cyclopropyl-5,6-difluoro-1H-benzo[d]imidazol-2-yl)-N-methylpyrimidin-4-amine], the IC50 in assay [1] was 1 to 100 nM; in assay [2], 100 to 1000 nM.
`CNc1ncncc1-c1nc2ccc(F)cc2n1C1CC1` [Example 12, 5-(1-Cyclopropyl-6-fluoro-1H-benzo[d]imidazol-2-yl)-N-methylpyrimidin-4-amine]: the figures for the IC50 in assay [1] and in assay [2] were 1 to 100 nM and 100 to 1000 nM, respectively.
As for `CC(F)(F)c1ncncc1-c1nc2cc(F)c(F)cc2n1C1CC1` [Example 71, 1-Cyclopropyl-2-(4-(1,1-difluoroethyl)pyrimidin-5-yl)-5,6-difluoro-1H-benzo[d]imidazole], the values for the IC50 in assay [1] and in assay [2] were 1 to 100 nM and 1000 to 10000 nM, respectively.
In the same order, the values of `FC(F)c1ncncc1-c1nc2ccc(Cl)cc2n1C1CC1` [Example 50, 6-Chloro-1-cyclopropyl-2-(4-(difluoromethyl)pyrimidin-5-yl)-1H-benzo[d]imidazole] are 1 to 100 nM and 1000 to 10000 nM.
For `FC(F)(F)c1ncncc1-c1nc2ccc(Cl)nc2n1C1CC1` [Example 61, 5-Chloro-3-cyclopropyl-2-(4-(trifluoromethyl)pyrimidin-5-yl)-3H-imidazo[4,5-b]pyridine] the same measures were 1 to 100 nM and 1000 to 10000 nM.
In the same order, the values of `Cc1ncncc1-c1nc2ccc(Cl)nc2n1C1CC1` [Example 48, 5-Chloro-3-cyclopropyl-2-(4-methylpyrimidin-5-yl)-3H-imidazo[4,5-b]pyridine] are 1 to 100 nM and 1000 to 10000 nM.

Source of the values: patent US11919883B2, “Metalloenzyme inhibitor compounds” (Ji Xing Pharmaceuticals Hong Kong Limited, priority 2016, dated 2024).
